Measured values from ChEMBL document CHEMBL4828703, “Structure-activity relationship study of THZ531 derivatives enables the discovery of BSJ-01-175 as a dual CDK12/13 covalent inhibitor with efficacy in Ewing sarcoma” (Eur J Med Chem, 2021).
The source made the active and inactive calls. The rule behind the calls is not given here.

Assays:
[1] = target: Cyclin-K (Homo sapiens) (UniProt O75909); experiment: Binding affinity to CyclinK in CDK12/CyclinK complex (unknown origin) at 10-fold excess concentration incubated for 1 hr by LC-MS analysis
[2] = Selectivity ratio of IC50 for human Kelly cells harboring CDK12 C1039F mutant to IC50 for human Kelly cells harboring wild type CDK12; assay type: functional
[3] = target: T1, Cyclin-dependent kinase 12/13 (Homo sapiens) (UniProt Q14004+Q9NYV4); experiment: Inhibition of THZ1-biotin binding from CDK12/13 in human Jurkat cells incubated for 3 hrs followed by drug wash-out for 24 hrs by competitive pull down assay; assay type: cell-based
[4] = target: Cyclin-dependent kinase 12 (Homo sapiens) (UniProt Q9NYV4); experiment: Inhibition of ADP(ATP)-biotin probe binding to CDK12 in human Kelly cells at 1 uM incubated for 6 hrs by KiNativ profiling analysis; assay type: cell-based
[5] = target: T1, Cyclin-dependent kinase 12/13 (Homo sapiens); experiment: Inhibition of CDK12/13 in human Jurkat cells assessed as BRCA2 gene expression at 0.5 to 1 uM incubated for 4 hrs by RT-qPCR analysis; assay type: cell-based; design: scale not given: the % may be the effect or the level left; settings: dose 0.5-1 µM
[6] = Metabolic stability in mouse liver microsomes assessed as half life; assay type: ADME, Microsome
[7] = AUClast in Swiss albino mouse at 3 mg/kg, iv measured upto 24 hrs by LC-MS/MS analysis; assay type: ADME, organism-based; design: route intravenous, dose 3 mg/kg, time <=24; settings: in vivo
[8] = Toxicity in nude mouse xenografted with human TC71 cells assessed as body weight loss at 10 mg/kg, ip for 21 days; assay type: organism-based; settings: in vivo, 504 h, time 21 day
[9] = target: Calcium/calmodulin-dependent protein kinase type IV (Homo sapiens) (UniProt Q16566); experiment: Inhibition of ADP(ATP)-biotin probe binding to CaMK4 in human Kelly cells at 1 uM incubated for 6 hrs by KiNativ profiling analysis; assay type: cell-based
[10] = AUClast in Swiss albino mouse at 10 mg/kg, po measured upto 24 hrs by LC-MS/MS analysis; assay type: ADME, organism-based; design: route oral, dose 10 mg/kg, time <=24; settings: in vivo
[11] = Volume of distribution at steady state in Swiss albino mouse at 3 mg/kg, iv measured upto 24 hrs by LC-MS/MS analysis; assay type: ADME, organism-based; settings: in vivo
[12] = target: Ribosomal protein S6 kinase alpha-2 (Homo sapiens) (UniProt Q15349); experiment: Inhibition of ADP(ATP)-biotin probe binding to RSK3 domain 1 in human Kelly cells at 1 uM incubated for 6 hrs by KiNativ profiling analysis; assay type: cell-based
[13] = Downregulation of RNA polymerase 2 CTD phosphorylation at Ser5 residue in human Jurkat cells at 2.5 uM incubated for 6 hrs by immunoblotting analysis; assay type: functional
[14] = target: Ribosomal protein S6 kinase alpha-3 (Homo sapiens, UniProt P51812); experiment: Inhibition of human RSK2 by Invitrogen ADAPTA or Z'LYTE biochemical kinase assay
[15] = target: Ribosomal protein S6 kinase alpha-1 (Homo sapiens) (UniProt Q15418); experiment: Inhibition of ADP(ATP)-biotin probe binding to RSK1 domain 1 in human Kelly cells at 1 uM incubated for 6 hrs by KiNativ profiling analysis; assay type: cell-based
[16] = Downregulation of RNA polymerase 2 CTD phosphorylation at Ser7 residue in human Jurkat cells at 2.5 uM incubated for 6 hrs by immunoblotting analysis; assay type: functional
[17] = target: T1, Cyclin-dependent kinase 12/13 (Homo sapiens); experiment: Inhibition of CDK12/13 in human jurkat cells assessed as reduction in RNA polymerase 2 CTD phosphorylation at Ser2 residue at 5 uM measured after 6 hrs by immunoblotting analysis; assay type: cell-based
[18] = target: DNA-dependent protein kinase catalytic subunit (Homo sapiens, UniProt P78527); experiment: Inhibition of ADP(ATP)-biotin probe binding to DNAPK in human Kelly cells at 1 uM incubated for 6 hrs by KiNativ profiling analysis; assay type: cell-based
[19] = target: Cyclin-dependent kinase 7/ cyclin H (Homo sapiens, UniProt P50613); experiment: Inhibition of CDK7/Cyclin H (unknown origin); assay type: protein-complex assay
[20] = Downregulation of RNA polymerase 2 in human Jurkat cells at 1 uM measured after 6 hrs by immunoblotting analysis; assay type: functional
[21] = Half life in Swiss albino mouse at 3 mg/kg, iv measured upto 24 hrs by LC-MS/MS analysis; assay type: ADME, organism-based; settings: in vivo
[22] = Cmax in Swiss albino mouse at 3 mg/kg, iv measured upto 24 hrs by LC-MS/MS analysis; assay type: ADME, organism-based; design: route intravenous, dose 3 mg/kg, time <=24; settings: in vivo
[23] = target: RAF proto-oncogene serine/threonine-protein kinase (Homo sapiens) (UniProt P04049); experiment: Inhibition of ADP(ATP)-biotin probe binding to RAF1 in human Kelly cells at 1 uM incubated for 6 hrs by KiNativ profiling analysis; assay type: cell-based
[24] = target: STE20-related kinase adapter protein beta (Homo sapiens) (UniProt Q9C0K7); experiment: Inhibition of ADP(ATP)-biotin probe binding to STLK6 in human Kelly cells at 1 uM incubated for 6 hrs by KiNativ profiling analysis; assay type: cell-based
[25] = target: Ribosomal protein S6 kinase alpha-4 (Homo sapiens) (UniProt O75676); experiment: Inhibition of ADP(ATP)-biotin probe binding to MSK2 domain 1 in human Kelly cells at 1 uM incubated for 6 hrs by KiNativ profiling analysis; assay type: cell-based
[26] = target: T1, Cyclin-dependent kinase 12/13 (Homo sapiens); experiment: Inhibition of CDK12/13 in human jurkat cells assessed as reduction in RNA polymerase 2 CTD phosphorylation at Ser2 residue at 2.5 uM measured after 6 hrs by immunoblotting analysis; assay type: cell-based
[27] = Downregulation of RNA polymerase 2 in human Jurkat cells at 5 uM measured after 6 hrs by immunoblotting analysis; assay type: functional
[28] = Downregulation of RNA polymerase 2 CTD phosphorylation at Ser5 residue in human Jurkat cells at 1 uM incubated for 6 hrs by immunoblotting analysis; assay type: functional
[29] = Downregulation of RNA polymerase 2 CTD phosphorylation at Ser5 residue in human Jurkat cells at 5 uM incubated for 6 hrs by immunoblotting analysis; assay type: functional
[30] = target: Mitogen-activated protein kinase 9 (Homo sapiens) (UniProt P45984); experiment: Inhibition of ADP(ATP)-biotin probe binding to JNK2 in human Kelly cells at 1 uM incubated for 6 hrs by KiNativ profiling analysis; assay type: cell-based
[31] = target: T1, Cyclin-dependent kinase 12/13 (Homo sapiens); experiment: Inhibition of CDK12/13 in human jurkat cells assessed as reduction in RNA polymerase 2 CTD phosphorylation at Ser2 residue at 0.5 uM measured after 6 hrs by immunoblotting analysis; assay type: cell-based
[32] = Downregulation of RNA polymerase 2 CTD phosphorylation at Ser7 residue in human Jurkat cells at 1 uM incubated for 6 hrs by immunoblotting analysis; assay type: functional
[33] = Tmax in Swiss albino mouse at 10 mg/kg, po measured upto 24 hrs by LC-MS/MS analysis; assay type: ADME, organism-based; settings: in vivo
[34] = target: T1, Cyclin-dependent kinase 12/13 (Homo sapiens); experiment: Inhibition of THZ1-biotin binding from CDK12/13 in human Jurkat cells at 500 nM incubated for 6 hrs by CyclinK antibody based competitive pull down assay; assay type: cell-based
[35] = target: Cyclin-dependent kinase 12 (Homo sapiens) (UniProt Q9NYV4); experiment: Covalent binding affinity to CDK12 in CDK12/CyclinK complex (unknown origin) assessed as covalent labeling of Cys1039 in gluc-protease digested CDK12 peptide 1025LASKMAPPDLPHWQDCHE1041 by CE-MS analysis
[36] = Downregulation of RNA polymerase 2 in human Jurkat cells at 0.5 uM measured after 6 hrs by immunoblotting analysis; assay type: functional

Cyclin-dependent kinase 12 (Homo sapiens), sequence (Q9NYV4 whole entry, looked up): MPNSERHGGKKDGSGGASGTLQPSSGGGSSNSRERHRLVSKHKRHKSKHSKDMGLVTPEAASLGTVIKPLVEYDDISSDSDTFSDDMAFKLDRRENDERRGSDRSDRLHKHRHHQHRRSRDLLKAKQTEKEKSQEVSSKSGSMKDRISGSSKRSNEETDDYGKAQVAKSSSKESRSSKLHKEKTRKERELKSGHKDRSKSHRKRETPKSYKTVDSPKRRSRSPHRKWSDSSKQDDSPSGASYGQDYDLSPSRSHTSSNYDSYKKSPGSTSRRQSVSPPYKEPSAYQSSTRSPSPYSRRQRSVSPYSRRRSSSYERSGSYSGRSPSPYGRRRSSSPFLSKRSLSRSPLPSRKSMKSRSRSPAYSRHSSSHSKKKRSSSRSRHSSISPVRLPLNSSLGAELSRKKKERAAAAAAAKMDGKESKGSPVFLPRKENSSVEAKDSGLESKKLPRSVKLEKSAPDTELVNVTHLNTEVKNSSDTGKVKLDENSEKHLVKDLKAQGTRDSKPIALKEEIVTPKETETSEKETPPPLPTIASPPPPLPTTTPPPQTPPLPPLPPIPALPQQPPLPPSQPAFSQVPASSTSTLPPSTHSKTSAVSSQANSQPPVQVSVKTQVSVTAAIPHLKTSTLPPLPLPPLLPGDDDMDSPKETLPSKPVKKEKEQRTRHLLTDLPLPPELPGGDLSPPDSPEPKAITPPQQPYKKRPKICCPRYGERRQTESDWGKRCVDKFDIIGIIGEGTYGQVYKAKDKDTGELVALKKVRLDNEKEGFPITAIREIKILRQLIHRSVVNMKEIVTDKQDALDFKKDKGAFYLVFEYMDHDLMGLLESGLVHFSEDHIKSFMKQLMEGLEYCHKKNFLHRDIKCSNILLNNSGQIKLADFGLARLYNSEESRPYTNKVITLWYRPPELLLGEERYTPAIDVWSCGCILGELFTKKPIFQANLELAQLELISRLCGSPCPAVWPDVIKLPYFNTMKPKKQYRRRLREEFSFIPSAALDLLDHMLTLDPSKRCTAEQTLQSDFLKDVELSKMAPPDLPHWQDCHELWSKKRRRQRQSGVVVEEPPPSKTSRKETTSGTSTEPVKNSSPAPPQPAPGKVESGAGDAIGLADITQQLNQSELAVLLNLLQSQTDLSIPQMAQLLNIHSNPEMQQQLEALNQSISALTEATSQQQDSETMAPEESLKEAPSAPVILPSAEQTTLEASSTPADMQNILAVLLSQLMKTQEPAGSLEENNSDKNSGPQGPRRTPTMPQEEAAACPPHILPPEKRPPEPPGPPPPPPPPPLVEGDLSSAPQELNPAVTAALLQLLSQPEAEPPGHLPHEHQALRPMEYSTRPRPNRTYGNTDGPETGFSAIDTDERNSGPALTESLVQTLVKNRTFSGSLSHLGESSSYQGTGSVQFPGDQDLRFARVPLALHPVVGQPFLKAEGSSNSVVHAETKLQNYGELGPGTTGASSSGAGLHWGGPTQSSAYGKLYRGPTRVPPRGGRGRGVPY
Ribosomal protein S6 kinase alpha-2 (Homo sapiens), sequence (Q15349 whole entry, the tested form may be a part): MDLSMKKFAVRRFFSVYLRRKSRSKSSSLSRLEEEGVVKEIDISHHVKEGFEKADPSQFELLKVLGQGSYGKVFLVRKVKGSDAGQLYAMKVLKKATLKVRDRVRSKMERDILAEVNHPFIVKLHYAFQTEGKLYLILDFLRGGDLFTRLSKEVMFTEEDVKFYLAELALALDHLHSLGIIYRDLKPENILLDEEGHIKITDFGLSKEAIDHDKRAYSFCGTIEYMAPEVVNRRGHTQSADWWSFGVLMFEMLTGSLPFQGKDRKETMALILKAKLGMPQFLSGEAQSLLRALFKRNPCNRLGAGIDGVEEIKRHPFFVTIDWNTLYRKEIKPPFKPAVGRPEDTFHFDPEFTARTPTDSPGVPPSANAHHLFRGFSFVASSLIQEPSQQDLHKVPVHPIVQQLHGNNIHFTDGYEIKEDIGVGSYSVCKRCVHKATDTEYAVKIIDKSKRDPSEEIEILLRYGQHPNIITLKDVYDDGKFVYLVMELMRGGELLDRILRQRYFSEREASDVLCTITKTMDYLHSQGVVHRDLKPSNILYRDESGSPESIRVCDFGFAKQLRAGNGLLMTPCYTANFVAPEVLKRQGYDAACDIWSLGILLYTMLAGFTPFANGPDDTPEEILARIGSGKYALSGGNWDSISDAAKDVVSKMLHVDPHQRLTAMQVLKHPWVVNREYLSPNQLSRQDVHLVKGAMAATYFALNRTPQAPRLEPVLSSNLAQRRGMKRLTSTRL
Ribosomal protein S6 kinase alpha-3, sequence (P51812 whole entry, the tested form may be a part): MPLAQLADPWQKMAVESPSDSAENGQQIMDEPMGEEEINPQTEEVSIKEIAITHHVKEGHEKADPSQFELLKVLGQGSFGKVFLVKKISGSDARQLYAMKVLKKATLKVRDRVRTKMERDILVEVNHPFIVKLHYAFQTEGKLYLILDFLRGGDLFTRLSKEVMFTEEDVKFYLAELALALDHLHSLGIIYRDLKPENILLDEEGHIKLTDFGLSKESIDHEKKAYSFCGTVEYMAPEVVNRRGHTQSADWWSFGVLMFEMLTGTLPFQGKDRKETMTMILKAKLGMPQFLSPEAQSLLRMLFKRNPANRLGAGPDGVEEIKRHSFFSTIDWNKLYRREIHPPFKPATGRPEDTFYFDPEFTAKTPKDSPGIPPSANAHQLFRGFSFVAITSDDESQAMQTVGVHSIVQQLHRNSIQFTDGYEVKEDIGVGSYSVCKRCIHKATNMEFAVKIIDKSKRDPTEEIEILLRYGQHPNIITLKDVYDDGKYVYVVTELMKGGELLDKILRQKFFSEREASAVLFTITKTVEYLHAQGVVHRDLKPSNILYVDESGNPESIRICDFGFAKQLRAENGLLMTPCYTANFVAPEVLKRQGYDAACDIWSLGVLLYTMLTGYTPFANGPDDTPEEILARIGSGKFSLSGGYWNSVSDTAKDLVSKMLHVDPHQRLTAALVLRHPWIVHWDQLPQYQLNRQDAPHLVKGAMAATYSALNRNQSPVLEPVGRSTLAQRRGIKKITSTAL
Cyclin-dependent kinase 7/ cyclin H, sequence (P51946 whole entry): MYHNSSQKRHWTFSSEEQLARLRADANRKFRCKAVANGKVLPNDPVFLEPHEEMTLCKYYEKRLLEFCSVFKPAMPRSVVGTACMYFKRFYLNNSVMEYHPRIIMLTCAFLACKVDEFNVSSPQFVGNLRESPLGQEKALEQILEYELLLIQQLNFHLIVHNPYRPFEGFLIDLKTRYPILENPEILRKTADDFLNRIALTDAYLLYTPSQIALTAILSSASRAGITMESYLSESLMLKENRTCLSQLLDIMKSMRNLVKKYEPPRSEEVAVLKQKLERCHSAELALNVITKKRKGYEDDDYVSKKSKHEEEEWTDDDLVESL
Cyclin-dependent kinase 7/ cyclin H, sequence (P50613 whole entry): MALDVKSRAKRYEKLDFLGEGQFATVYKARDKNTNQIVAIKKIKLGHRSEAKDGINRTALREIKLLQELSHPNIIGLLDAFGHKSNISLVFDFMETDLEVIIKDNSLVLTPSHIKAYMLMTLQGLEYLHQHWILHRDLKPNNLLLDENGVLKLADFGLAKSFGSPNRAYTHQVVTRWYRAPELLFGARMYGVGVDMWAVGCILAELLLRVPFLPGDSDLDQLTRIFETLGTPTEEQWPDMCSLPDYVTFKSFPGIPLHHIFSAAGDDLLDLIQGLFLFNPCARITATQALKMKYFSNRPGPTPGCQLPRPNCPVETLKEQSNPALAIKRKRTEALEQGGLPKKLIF
Mitogen-activated protein kinase 9 (Homo sapiens), sequence (P45984 whole entry, looked up): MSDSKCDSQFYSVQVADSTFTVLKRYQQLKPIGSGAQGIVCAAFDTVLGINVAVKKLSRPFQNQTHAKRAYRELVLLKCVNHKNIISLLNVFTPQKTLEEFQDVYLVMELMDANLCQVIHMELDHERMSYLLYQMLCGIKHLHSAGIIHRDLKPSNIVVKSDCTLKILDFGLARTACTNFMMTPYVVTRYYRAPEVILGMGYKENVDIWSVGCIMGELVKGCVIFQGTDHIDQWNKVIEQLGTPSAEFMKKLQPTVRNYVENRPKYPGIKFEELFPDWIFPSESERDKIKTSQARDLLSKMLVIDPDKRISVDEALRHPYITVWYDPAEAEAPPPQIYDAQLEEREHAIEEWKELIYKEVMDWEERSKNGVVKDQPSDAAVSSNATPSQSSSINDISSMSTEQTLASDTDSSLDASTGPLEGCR
Ribosomal protein S6 kinase alpha-1 (Homo sapiens), sequence (Q15418 whole entry, the tested form may be a part): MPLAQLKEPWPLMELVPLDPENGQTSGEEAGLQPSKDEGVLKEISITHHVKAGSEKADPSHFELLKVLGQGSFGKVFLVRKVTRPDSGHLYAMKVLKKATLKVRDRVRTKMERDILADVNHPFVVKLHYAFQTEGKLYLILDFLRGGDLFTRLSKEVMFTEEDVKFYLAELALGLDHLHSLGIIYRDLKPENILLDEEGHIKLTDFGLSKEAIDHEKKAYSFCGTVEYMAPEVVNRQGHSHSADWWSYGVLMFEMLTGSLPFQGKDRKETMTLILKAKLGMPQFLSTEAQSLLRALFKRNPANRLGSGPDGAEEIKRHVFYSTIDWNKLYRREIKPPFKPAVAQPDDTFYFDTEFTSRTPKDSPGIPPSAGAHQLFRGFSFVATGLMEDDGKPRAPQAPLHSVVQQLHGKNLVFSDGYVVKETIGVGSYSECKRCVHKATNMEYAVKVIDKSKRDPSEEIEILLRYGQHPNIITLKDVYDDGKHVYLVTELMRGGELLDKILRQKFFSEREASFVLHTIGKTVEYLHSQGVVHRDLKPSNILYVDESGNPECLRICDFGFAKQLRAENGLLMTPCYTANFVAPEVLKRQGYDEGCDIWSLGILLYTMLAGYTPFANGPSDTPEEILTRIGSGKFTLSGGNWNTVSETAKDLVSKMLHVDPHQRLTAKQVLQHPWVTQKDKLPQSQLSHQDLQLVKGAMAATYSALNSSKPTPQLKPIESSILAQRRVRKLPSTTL

Activity [1]: inactive
inhibition [3]: Active
inhibition [4]: 76.8%
Activity [5]: 30%
t1/2 [6]: 8 min
AUClast [7]: 1832 ng·h/mL
inhibition [9]: 38.2%
AUClast [10]: 1043 ng·h/mL
Vdss [11]: 3.9 L/kg
inhibition [12]: 41.6%
IC50 [14]: 4500 nM
inhibition [15]: 35.4%
inhibition [17]: 89%
inhibition [18]: 38.3%
IC50 [19]: 187 nM
t1/2 [21]: 2.2 h
Cmax [22]: 1511 ng/mL
inhibition [23]: 37.8%
inhibition [24]: 44.5%
inhibition [25]: 40.3%
inhibition [26]: 87%
inhibition [30]: 45.9%
inhibition [31]: 45%
Tmax [33]: 2 h
inhibition [34]: Active
Activity [35]: Active
SMILES: CN(C)C/C=C/C(=O)Nc1ccc(O[C@@H]2CCC[C@@H](Nc3ncc(Cl)c(-c4c[nH]c5ccccc45)n3)C2)cc1
Ratio IC50 [2]: 5
Activity [8]: Toxic
inhibition at 2.5 µM [13]: 47%
inhibition at 2.5 µM [16]: 58%
inhibition at 1 µM [20]: 13%
inhibition at 5 µM [27]: 38%
inhibition at 1 µM [28]: 32%
inhibition at 5 µM [29]: 47%
inhibition at 1 µM [32]: 41%
inhibition at 0.5 µM [36]: 0%
